# Measurements as given in patent publication US20220184091A1, “Methods of Treating Cancer with Chk1 Inhibitors” (Sierra Oncology, Inc., priority 2019, published 2022).
# Tests used:
# RPP = assay: Survival of cancer cells after gemcitabine, RPP; assay type: cell-based, murine; conditions: RPP SCLC in vitro model
# Procedure: Data presented as mean±SD and p values by t-test ***p<0.001.
# (§1) SCLC cell lines were incubated with dimethyl sulfoxide (vehicle control), SRA737 or Gemcitabine for 96 hours at nine distinct concentrations, with the maximum dose being 10 μM. A CellTiter-Glo luminescent cell viability assay (Promega) was performed after 96 hours of treatment as per the manufacturer's specifications. IC50 values were estimated using Drexplorer, as previously described (Tong P, Coombes K R, Johnson F M, Byers L A, Diao L, Liu D D, Lee J J, Heymach J V, Wang J. drexplorer: A tool to explore dose-response relationships and drug-drug interactions. Bioinformatics. 2015 May 15; 31(10):1692-4.)
# H209 = assay: Survival of cancer cells after gemcitabine, H209; assay type: cell-based; conditions: H209 SCLC in vitro model
# Procedure: as §1
# IFNβ, CXCL10 and CCL5 = assay: qPCR of IFNβ, CXCL10 and CCL5 in resected RPP tumors; assay type: in vivo, mouse; conditions: RPP tumors resected at Day 21; SRA737 2-days-on/5-days-off
# Procedure: Data presented as mean±SD and p values by t-test * p<0.05, **p<0.01, ***p<0.001.
# Real-time PCR was done using SYBR Select Master Mix (Life Technologies, cat #4472908) according to the manufacturer's protocol. Primers were purchased from Sigma Aldrich, Inc. Triplicate PCR reactions were run on ABI (7500 Fast Real Time PCR System). The comparative Ct method using the average 2ΔΔCT value for each set of triplicates was used, and the average of the biological replicates was calculated. Negative controls were included for every primer set, and GAPDH was used as the […].
# H524 = assay: Survival of cancer cells after gemcitabine, H524; assay type: cell-based; conditions: H524 SCLC in vitro model
# Procedure: as §1
# RPP tumor = assay: Flank RPP (SCLC) tumor growth in B6129F1 immunocompetent mice; assay type: in vivo, mouse; conditions: anti-PD-L1 300 μg 1-day-on/6-days-off; LDG 40 mg/kg 1-day-on/6-days-off; SRA737 100 mg/kg 2-day-on/5-days-off
# Procedure: Tumors were evaluated twice weekly for the duration of the study. Tumor volumes were measured on all mice three times per week and calculated (width^2×length×0.4) using manual calipers. Once the average tumor size was in the range of 120-150 mm^3, mice were randomized into dosing groups using stratified sampling by assigning three animals per group for short-term reverse-phase protein array analysis and long-term treatment. Dosing schedules and duration varied depending on the study. Mice were weighed three times per week for the duration of the study, and a decrease in body weight >15% was considered indicative of a toxic dose. The Student t-test was used to determine statistical significance between compound- and vehicle-treated groups.
# […] 15A.
structure (smiles),measurement,setting,value
Nc1ccn([C@@H]2O[C@H](CO)[C@@H](O)C2(F)F)c(=O)n1 [gemcitabine],response of cancer cells to gemcitabine alone,RPP,resistant
same,response of cancer cells to gemcitabine alone,H209,resistant
same,"expression of IFNβ, CCL5 and CXCL10","IFNβ, CXCL10 and CCL5",Neither LDG nor SRA737 monotherapy (2-days-on/5-days-off) showed any significant effect
same,response of cancer cells to gemcitabine alone,H524,resistant
same,anti-tumor effect (tumor volume),RPP tumor,no significant anti-tumor effect
